Each structure is given as a SMILES string. Values after ≈ are worked out from the molar mass of the structure shown.

The test system of data set [1] is Candida albicans. The data set is described as follows: microbe, parasite or virus in culture. The class given is functional. The note with it: CBS 562.
Description: Antifungal activity against Candida albicans CBS 562
Data set [2] has as its system Candida albicans. The data set is described as follows: microbe, parasite or virus in culture. The data set is classed as functional.
Description: Antifungal activity against Candida albicans 607
Data set [3] concerns Candida albicans. The data set is described as follows: microbe, parasite or virus in culture. The class given is functional. The source holds these as a separate data set.
Description: Antifungal activity against Candida albicans 615
Data set [4] relates to Aspergillus fumigatus. The data set is described as follows: microbe, parasite or virus in culture. The class given is functional. The note with it: ATCC 64026.
Description: Antifungal activity against Aspergillus fumigatus ATCC 64026
In data set [5] the test system is Nakaseomyces glabratus. The data set is described as follows: microbe, parasite or virus in culture. The class given is functional.
Description: Antifungal activity against Candida glabrata 566
Data set [6] has as its system Nakaseomyces glabratus. The data set is described as follows: microbe, parasite or virus in culture. The class given is functional. The source holds these as a separate data set.
Description: Antifungal activity against Candida glabrata 572
Data set [7] relates to Nakaseomyces glabratus. The data set is described as follows: microbe, parasite or virus in culture. The data set is classed as functional. This is another data set of the same source.
Description: Antifungal activity against Candida glabrata 578
Data set [8] relates to Nakaseomyces glabratus. The data set is described as follows: microbe, parasite or virus in culture. The data set is classed as functional. The source holds these as a separate data set.
Description: Antifungal activity against Candida glabrata 646
The subject of data set [9] is Nakaseomyces glabratus. The data set is described as follows: microbe, parasite or virus in culture. The class given is functional. The source holds these as a separate data set.
Description: Antifungal activity against Candida glabrata 648
Data set [10] relates to Pichia kudriavzevii. The data set is described as follows: microbe, parasite or virus in culture. The data set is classed as functional.
Description: Antifungal activity against Candida krusei 603
The test system of data set [11] is Pichia kudriavzevii. The data set is described as follows: microbe, parasite or virus in culture. The class given is functional. This is another data set of the same source.
Description: Antifungal activity against Candida krusei 638
Data set [12] in a line: Toxicity in ICR mouse at 1 to 2 mg/ml, iv after 8 days. To be noted: in vivo.

`CCCCCCCCCCCN(C)C.N#CB(Br)Br`: the MIC was found to be 39 µM in data set [1]; 39 µM in data set [2]; 39 µM in [3]; 79 µM in data set [4]; 20.2 µM in data set [5]; 40.4 µM in data set [6]. Also, the MIC is 40.4 µM in [7]; 20.2 µM in data set [8]; 20.2 µM in data set [9]; 10.1 µM in [10]; 10.1 µM in data set [11]. In [12], this compound yielded an MTD at 192 h of 73.1 µmol/kg.
For `CN(C)C.N#CB(Br)Br` [DIBROMOBORANECARBONITRILE; TRIMETHYLAMINE], the MIC is 1970 µM in [1], above 1970 µM in [2] and above 1970 µM in data set [3].
Take `CN(C)CCCCCCCCCCN(C)C.N#CB(Br)Br.N#CB(Br)Br`: the MIC in [1], in [2] and in data set [3] was 104 µM each time.
With `CN(C)CCCCCCCCCCN(C)C.N#CBBr.N#CBBr`, the MIC in data set [1], in [2] and in data set [3] was 140 µM each time.
Consider `OC(Cn1cncn1)(Cn1cncn1)c1ccc(F)cc1F` [FLUCONAZOLE], for which the MIC was 1.6 µM (≈ 0.49 µg/mL) in data set [1]; 1.6 µM (≈ 0.49 µg/mL) in data set [2]; 1.6 µM (≈ 0.49 µg/mL) in [3]; above 208 µM in data set [4]; above 836 µM in [6]; above 836 µM in [7]. Also, the MIC in [8] turned out to be 52.2 µM (≈ 16 µg/mL); in data set [10], 104 µM (≈ 32 µg/mL); in data set [11], 104 µM (≈ 32 µg/mL).
In the case of `BC#N.CCCCCCCCCCCCN(C)C` [DODECYLDIMETHYLAMINE CYANOBORANE], the MIC in data set [1], in [2] and in data set [3] was 61 µM each time.
For the compound `BC(=O)O.BC(=O)O.CN(C)CCCCCCCCCCN(C)C`, the MIC stood at 188 µM in data set [1], 188 µM in data set [2] and 907 µM in data set [3].
Turning to `CCCCCCCCCCCN(C)C.N#CBBr`, the MIC was 49 µM in data set [1], 49 µM in [2], 49 µM in [3] and 131 µM in data set [4].
Consider `CCCCCCCCCCCN(C)C.N#CBF`, for which the MIC in data set [1] is 64 µM; in [2] it was 64 µM; in [3] it was 64 µM; in data set [4] it was 129 µM.
As to `BC#N.CN(C)C`, the MIC in [1] is 5100 µM; in data set [2], above 5100 µM; in data set [3], above 5100 µM; in data set [4], above 5100 µM.
For the compound `C[C@@H]1[C@H](O)[C@@H](C)/C=C/C=C/C=C/C=C/C=C/C=C/C=C/[C@H](O[C@@H]2O[C@H](C)[C@@H](O)[C@H](N)[C@@H]2O)C[C@@H]2O[C@](O)(C[C@@H](O)C[C@@H](O)[C@H](O)CC[C@@H](O)C[C@@H](O)CC(=O)O[C@H]1C)C[C@H](O)[C@H]2C(=O)O` [AMPHOTERICIN B], the MIC worked out at 0.54 µM (≈ 0.499 µg/mL) in [1]; 0.27 µM (≈ 0.25 µg/mL) in data set [2]; 0.27 µM (≈ 0.25 µg/mL) in data set [3]; 0.5 µM (≈ 0.462 µg/mL) in data set [4]; 0.13 µM (≈ 0.12 µg/mL) in [5]; 1.07 µM (≈ 0.989 µg/mL) in data set [6]. Moreover, the MIC in data set [7] was found to be 2.14 µM (≈ 1.98 µg/mL); in data set [8] it was 0.41 µM (≈ 0.379 µg/mL); in [9], 0.82 µM (≈ 0.758 µg/mL); in data set [10], 4.32 µM (≈ 3.99 µg/mL); in data set [11] it was 4.32 µM (≈ 3.99 µg/mL). For the same compound, in data set [12], the MTD at 192 h came out at 2.6 µmol/kg.
